“And” between values parts separate entries of the source, which are not always exact repeats. Identical values can stand only once. Positions of bridges follow the written chain, without caps; N, C: chain ends. Non-standard residues stand in square brackets, D forms with d. Residues, ends and D or L forms follow the SMILES beside them. ξ: configuration not given here. Ala(indol-2-yl) = N[C@@H](Cc1cc2ccccc2[nH]1)C(=O)O; AllylGly = C=CC[C@H](N)C(=O)O; ξP = O=C(O)C1CCCN1
Tests used:
[1] = target: T1, neuronal-type nicotinic receptors (Bos taurus, UniProt Q07263+Q8SPU6); assay type: cell-based, Bovine
T1 construct: monolayer cultures of bovine adrenal chromaffin cells; endogenous in cells; host or cells: bovine adrenal chromaffin cells (primary monolayer cultures)

[2] = target: T1, neuronal-type nicotinic receptors; conditions: cited from earlier work

T1 sequence (Q07263 22-495): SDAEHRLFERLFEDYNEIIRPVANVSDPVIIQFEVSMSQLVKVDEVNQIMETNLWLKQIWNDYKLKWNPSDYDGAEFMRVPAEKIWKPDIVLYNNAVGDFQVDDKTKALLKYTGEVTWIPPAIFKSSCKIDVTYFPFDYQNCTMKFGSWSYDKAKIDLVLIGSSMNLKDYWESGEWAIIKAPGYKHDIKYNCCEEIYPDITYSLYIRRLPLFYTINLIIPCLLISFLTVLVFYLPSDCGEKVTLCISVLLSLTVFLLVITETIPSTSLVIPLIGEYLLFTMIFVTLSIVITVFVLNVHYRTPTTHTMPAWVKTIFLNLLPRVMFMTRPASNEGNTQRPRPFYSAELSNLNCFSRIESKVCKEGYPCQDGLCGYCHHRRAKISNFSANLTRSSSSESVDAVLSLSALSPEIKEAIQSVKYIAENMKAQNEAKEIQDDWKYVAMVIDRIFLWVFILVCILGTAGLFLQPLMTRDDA
T1 sequence (Q8SPU6 20-496): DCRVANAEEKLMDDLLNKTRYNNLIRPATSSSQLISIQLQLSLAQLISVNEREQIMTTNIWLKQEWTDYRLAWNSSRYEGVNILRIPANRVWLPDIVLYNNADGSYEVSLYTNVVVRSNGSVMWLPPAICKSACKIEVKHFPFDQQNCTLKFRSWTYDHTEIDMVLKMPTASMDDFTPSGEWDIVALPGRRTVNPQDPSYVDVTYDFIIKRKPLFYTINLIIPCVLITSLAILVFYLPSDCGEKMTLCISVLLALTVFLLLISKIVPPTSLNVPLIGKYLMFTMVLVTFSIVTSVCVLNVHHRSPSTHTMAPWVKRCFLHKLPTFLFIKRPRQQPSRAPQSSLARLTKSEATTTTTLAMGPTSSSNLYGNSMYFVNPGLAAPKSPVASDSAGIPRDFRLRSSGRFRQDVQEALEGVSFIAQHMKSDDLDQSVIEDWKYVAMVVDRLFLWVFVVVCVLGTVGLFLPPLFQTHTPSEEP

SMILES | Adrenaline Release, 1st-4th (individual wells) [1] | Adrenaline Release, % control [1] | Adrenaline Release, mean [1] | Noradrenaline Release, 1st-4th (individual wells) [1] | Noradrenaline Release, % control [1] | Noradrenaline Release, mean [1] | Noradrenaline Release, % inhibition [1] [%] | noradrenaline released, basal release (0.72%) subtracted [1] [%] | effect on nicotine-stimulated release of adrenaline and noradrenaline [2]
C[C@@H]1NC(=O)[C@@H]2CCCC[C@H](NC(=O)CN)C(=O)N[C@@H](CSSC[C@@H](C(N)=O)NC(=O)[C@H](CCCNC(=N)N)NC(=O)[C@H](Cc3cc4ccccc4[nH]3)NC1=O)C(=O)N[C@@H](CO)C(=O)N[C@@H](CC(=O)O)C(=O)N1CCCC1C(=O)N[C@@H](CCCNC(=N)N)C(=O)N2 (stereo partly drawn) [compound 118, [2,8]-Dicarba-[3,12]-Cystino Conotoxin ImI: NH2-Gly-c[Hag-Cys-Ser-Asp-Pro-Arg-Hag]-Ala-Trp-Arg-Cys)-NH2] | 2.94% and 4.40% and 4.46% and 4.09% and 2.55% and 3.63% and 2.62% and 3.31% | 88.260% and 65.306% | 3.97% and 3.03% | 4.52% and 6.29% and 7.00% and 7.34% and 4.19% and 5.86% and 4.32% and 5.51% | 90.859% and 69.384% | 6.29% and 4.97% |  |  | 
C[C@@H]1NC(=O)[C@@H]2CSSC[C@H](NC(=O)CN)C(=O)N[C@@H](CC=CC[C@@H](C(N)=O)NC(=O)[C@H](CCCNC(=N)N)NC(=O)[C@H](Cc3cc4ccccc4[nH]3)NC1=O)C(=O)N[C@@H](CO)C(=O)N[C@@H](CC(=O)O)C(=O)N1CCCC1C(=O)N[C@@H](CCCNC(=N)N)C(=O)N2 (stereo partly drawn) [compound 119, [2,8]-Cystino-[3,12]-Dicarba Conotoxin ImI: NH2-Gly-Cys-c [Hag-Ser-Asp-Pro-Arg-Cys-Ala-Trp-Arg-Hag]-NH2] (H-GC[AllylGly]SD[ξP]RCA[Ala(indol-2-yl)]R[AllylGly]-NH2; disulfide 2-8; staple 3-12) | 3.31% and 3.67% and 4.14% and 3.98% and 2.32% and 2.95% and 2.76% and 3.02% | 83.420% and 58.888% | 3.77% and 2.76% | 4.89% and 5.75% and 5.73% (2×) and 3.22% and 4.58% and 3.99% and 4.81% | 78.400% and 55.971% | 5.52% and 4.15% | 21.600 | 3.43 | 
C[C@@H]1NC(=O)[C@@H]2CSSC[C@H](NC(=O)CN)C(=O)N[C@@H](CSSC[C@@H](C(N)=O)NC(=O)[C@H](CCCNC(=N)N)NC(=O)[C@H](Cc3cc4ccccc4[nH]3)NC1=O)C(=O)N[C@@H](CO)C(=O)N[C@@H](CC(=O)O)C(=O)N1CCCC1C(=O)N[C@@H](CCCNC(=N)N)C(=O)N2 (stereo partly drawn) [native-Ctx ImI] (H-GCCSD[ξP]RCA[Ala(indol-2-yl)]RC-NH2; disulfide 2-8, 3-12) |  |  |  |  |  |  |  |  | inhibit
